{"source": "patent US20250114329A1", "about": "“METHODS FOR TREATING AML-MRC AND MDS” (Ascentage Pharma (Suzhou) Co., LTD, priority 2022, published 2025)", "key": {"H929 cells": {"test_system": "H929 cells", "assay": "Western Blotting assay", "format": "cell-based, human", "details": "24 hrs or 48 hrs", "experimental": "After treatments with single or combined test articles, cultured cells were harvested and washed with ice-cold PBS. Cell pellets were lysed in RIPA buffer containing 1% PMSF, 1% phosphatase inhibitor, and 1% protease inhibitors. Protein concentrations were determined using the BCA Protein Assay Kit. Whole tumor lysates ([…]) were separated on an 8-12% SDS-PAGE. The separated proteins were transferred to a PVDF membrane. The PVDF membrane was blocked with 1-3% BSA buffer for 30 min to 1 hour at room temperature. Incubate membrane with diluted primary antibody in 1×TBST containing 1-3% BSA at 4° C., with gentle agitation overnight. Wash the membrane with 1×TBST three times. Incubate membrane with HRP-conjugated secondary antibody with gentle agitation for 1 hour at room temperature. Wash the membrane with 1×TBST three times. The signals were visualized with Super ECL Detection Reagent and detected by chemiluminescence imaging system."}, "[1]": {"test_system": "relapsed/refractory AML, CMML or MDS (AML-MRC subject)", "assay": "Phase Ib/II study of Compound C alone or in combination with azacitidine (Example 1)", "format": "in vivo, human", "details": "Compound C alone, 150 mg", "description": "This was a two part study in patients with relapsed/refractory (R/R) acute myeloid leukemia (AML), Chronic Myelomonocytic Leukemia (CMML) and relapsed/progressed higher-risk myelodysplastic syndrome (MDS), that was designed to evaluate the safety and tolerability of Compound C as a single agent in Part I, followed by a combination of Compound C plus 5-azacitidine in Part II. Part I: Dose escalation of Compound C will use standard 3+3 design. Compound C will be administered orally once daily (QD) on Day 1 to 5 every 28-day cycle. The starting target dose is 100 mg (dose level; DL1) and will be increased in subsequent cohorts to 150 mg (DL2), 200 mg (DL3) and 250 mg (DL4), accordingly. Part II: Compound C will be co-administered with 5-azacitidine SC or IV at 75 mg/m^2 once daily on 7 out of 9 days from Day 1 to Day 9 every 28-day cycle."}, "[2]": {"test_system": "R/R AML with myelodysplasia-related changes", "assay": "Phase Ib/II study of Compound C alone or in combination with 5-azacitidine or cytarabine (Example 2)", "format": "in vivo, human", "details": "Compound C alone, person, R/R AML-MRC", "description": "This was a three parts study in patients with relapsed/refractory acute myeloid leukemia (AML), relapsed or progressed high or very high risk myelodysplastic syndrome (MDS) that was designed to evaluate the safety and tolerability of Compound C as a single agent in Part I, followed by a combination dose escalation of Compound C plus either 5-azacitidine or cytarabine in Part II and a dose expansion of the combination treatment in part III. Part I: Dose escalation of Compound C will use standard 3+3 design. Compound C will be administered orally once daily (QD) on Day 1 to 7 every 28-day cycle. The starting target dose is 100 mg (dose level; DL1) and will be increased in subsequent cohorts to 150 mg (DL2), 200 mg (DL3) and 250 mg (DL4), accordingly. Part II: Dose escalation of Compound C combination with either 5-azacitidine or cytarabine, which includes two Arms, Arm A and Arm B. Arm A will enroll patients with relapsed or progressed high or very high risk MDS and Arm B will enroll patients with R/R AML. In this part, 5-azacitidine and cytarabine will be administered with fixed dose. The starting dose of Compound C was 100 mg and will be increased subsequently to 150 mg and 200 mg. In Arm A, Compound C will be co-administered with 5-azacitidine subcutaneously injected at 75 mg/m^2 once daily on Day 1 to 7 every 28-day cycle. In Arm B, Compound C will be co-administered once daily on Day 1 to 7 every 28-day cycle with cytarabine intravenously administered at 1 g/m^2 once daily on Day 3 to 7 every 28-day cycle."}}, "data": [{"smiles": "CCN1[C@@H](C(=O)NC23CCC(C(=O)O)(CC2)CC3)[C@H](c2cccc(Cl)c2F)[C@]2(C(=O)Nc3cc(Cl)ccc32)C12CCCCC2", "note": "[Compound C, alrizomadlin]", "values": [{"measurement": "P53, MDM2 and P21 expression", "setting": "H929 cells", "result": "upregulated"}, {"measurement": "End of cycle 1 disease assessment", "setting": "[1]; person, AML-MRC (TP53w, FLT3-, IDH1/2-), prior venetoclax + decitabine", "result": "CRi"}, {"measurement": "Blast at C2D1", "setting": "[1]; reduced from 43%, Day 1 of cycle 2", "result": "to 13%"}, {"measurement": "Blast at C3D1", "setting": "[1]; reduced from 43%, Day 1 of cycle 3", "result": "C2D1, to 3%"}, {"measurement": "Response", "setting": "[2]; 100 mg, prior D-CAG, C1D62", "result": "CRi"}, {"measurement": "Response", "setting": "[2]; 200 mg, prior D-CAG, C3D21", "result": "CRi"}, {"measurement": "Response", "setting": "[2]; 250 mg, several prior regimens", "result": "MLFS"}]}]}
